# Molecular target: T1, D1 dopamine receptor (Macaca fascicularis, UniProt Q5I6B7)
# T1 sequence (Q5I6B7 whole entry): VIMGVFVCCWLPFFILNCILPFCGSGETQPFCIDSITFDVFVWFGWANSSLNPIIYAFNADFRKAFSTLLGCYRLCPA
row,SMILES,Ki [nM]
1,"Oc1cc2c(cc1O)[C@@H]1c3ccccc3CN[C@@H]1CC2 [(+/-)-trans-10,11-dihydroxy-5,6,6a,7,8,12b-hexahydrobenzo[a]phenanthridine]",20.2
2,Oc1cc2c(cc1O)[C@@H](c1ccccc1)CNCC2,106
3,"CN1CCc2cc(Cl)c(O)cc2[C@@H](c2ccccc2)C1 [SCH 23390,R(+)]",1.3
